Experiment [1] has as its system Prevotella intermedia ATCC 25611. The experiment is described as follows: Broth microdilution minimum inhibitory concentration, Prevotella intermedia. It counts as cell-based. The conditions noted are these: for MIC: Prevotella intermedia, ATCC25611, read-out: MIC against Prevotella intermedia. Here is the method: (§1) For anaerobes, 190 μL of sterile, pre-reduced Wilkins Chalgren (WC) anaerobe broth with 0.075% cysteine were added to the first well of the test series in a 96 well plate, followed by 100 μL in each of four additional test wells. Ten μL of filter-sterilized stock solution of licorice CO2 extract, prepared at 40 mg/mL in ethanol, was added to the first well of the series. Contents of the first well were mixed thoroughly and serially diluted (1:1) with the remaining four wells in the series; 100 μL were discarded from the final well in the series. Suspensions of Porphyromanas gingivalis ATCC 33277 or Prevotella. intermedia ATCC 25611, diluted to approximately 1×10^6 cfu (colony forming units) per mL, were added to the test wells in 100 μL quantities. Appropriate growth promotion and sterility controls were included. Plates were incubated at 37° C. anaerobically, until turbidity in the growth control well was observed. The MIC (minimum inhibitory concentration) was recorded as the lowest concentration inhibiting growth of the test organism as viewed with the unaided eye. Streptococcus mutans ATCC 25175 was tested in similar fashion, with Tryptic Soy Broth (TSB) as the test medium and incubation of plates at 37° C. with 5% CO2. Staphylococcus aureus ATCC 6538 was tested using Tryptic Soy Broth (TSB) as the test medium and incubation of plates at 37° C. Aspergillus niger ATCC 16404 was tested, with Tryptic Soy Broth (TSB) as the test medium and incubated at room temperature (25° C.).
(§2) Broth microdilution minimum inhibitory concentration was performed as follows. Ten μL of filter-sterilized stock solution of pure compound, licoricidin or licorisoflavan A, prepared at 1 mg/mL in ethanol, was added to the first well of the series. Contents of the first well were mixed thoroughly and serially diluted (1:1) with the remaining seven wells in the series; 100 μL were discarded from the final well in the series. Suspensions of Porphyromanas gingivalis ATCC 33277 or Prevotella. intermedia ATCC 25611, diluted to approximately 1×10^6 cfu (colony forming units) per mL, were added to the test wells in 100 μL quantities. Appropriate growth promotion and sterility controls were included. Plates were incubated at 37° C. anaerobically, until turbidity in the growth control well was observed. The MIC (minimum inhibitory concentration) was recorded as the lowest concentration inhibiting growth of the test organism as viewed with the unaided eye. Streptococcus mutans ATCC 25175 was tested in similar fashion, with Tryptic Soy Broth (TSB) as the test medium and incubation of plates at 37° C. with 5% CO2.

Experiment [2] deals with Porphyromanas gingivalis ATCC 33277. The experiment is described as follows: Broth microdilution minimum inhibitory concentration, Porphyromonas gingivalis. Format: cell-based. Particulars: for MIC: Porphyromonas gingivalis, ATCC33277, read-out: MIC against Porphyromonas gingivalis. On the procedure:
as §1, §2
In general terms: Broth dilution looks for growth in wells or tubes with falling amounts of substance.

Experiment [3] deals with Streptococcus mutans ATCC 25175. The experiment is described as follows: Broth microdilution minimum inhibitory concentration, Streptococcus mutans. Format: cell-based. The conditions noted are these: for MIC: Streptococcus mutans, ATCC25175, read-out: MIC against Streptococcus mutans. Here is the method:
as §1, §2

A short description of experiment [4]: Anti-inflammatory activity of the isolated components.
Where [5] appears, read: broth microdilution, anaerobic 37° C., mode of triplicate.
Where [6] appears, read: broth microdilution, TSB, 37° C. with 5% CO2, mode of triplicate.

As usually defined, the MIC is the lowest concentration that inhibits growth of the organism.

Converted amounts (≈) assume the structure as drawn.

On to licorisoflavan A, for which, in experiment [1] (setting [5]), the “MIC against Prevotella intermedia” value came to 1.56 µg/mL. The “MIC against Porphyromonas gingivalis” value in experiment [2] (setting [5]) worked out at 0.78 µg/mL. The compound also registered an antimicrobial activity (MIC) on Streptococcus mutans in experiment [3] of 3.12 µg/mL. Besides, the “MIC against Streptococcus mutans” value in experiment [3] (setting [6]) amounted to 3.125 µg/mL. Further, the “activity as anti-inflammatory agents” value in experiment [4] was “excellent activity”.
On to `COc1c(CC=C(C)C)c(O)cc2c1C[C@H](c1ccc(O)c(CC=C(C)C)c1O)CO2` [Licoricidin, licoricidin], for which the MIC in experiment [1] (setting [5]) came to 0.78 µg/mL (≈ 1.84 µM); in experiment [2] (setting [5]) it was 0.39 µg/mL (≈ 0.919 µM); in experiment [3] (setting [6]) it was 3.12 µg/mL (≈ 7.36 µM). For the same compound, the antimicrobial activity (MIC) against Porphyromonas gingivalis in experiment [2] is 0.39 µg/mL. In experiment [3], this compound registered an antimicrobial activity (MIC) on Streptococcus mutans of 3.12 µg/mL. The “activity as anti-inflammatory agents” value in experiment [4] is listed as “excellent activity”.
With `[H]/N=C(\N/C(=N/[H])NCCCCCCNC(=N)NC(=N)Nc1ccc(Cl)cc1)Nc1ccc(Cl)cc1` [Chlorhexidine, reference compound], the MIC is 3.12 µg/mL (≈ 6.18 µM) in experiment [1] (setting [5]), 6.25 µg/mL (≈ 12.4 µM) in experiment [2] (setting [5]) and 1.56 µg/mL (≈ 3.09 µM) in experiment [3] (setting [6]). In addition, the “MIC against Prevotella intermedia (Chlorhexidine, Table 1A)” value in experiment [1] (column head prints no unit) was 3.125. Besides, the “MIC against Porphyromonas gingivalis (Chlorhexidine, Table 1A)” value in experiment [2] (column head prints no unit) is 6.25. For the same compound, in experiment [3] (column head prints no unit), the “MIC against Streptococcus mutans (Chlorhexidine, Table 1A)” value was determined as 1.56.
